{
  "source": "paper PMC6154558",
  "about": "“Discovery and Biological Evaluation of a Series of Pyrrolo[2,3-b]pyrazines as Novel FGFR Inhibitors” (Molecules : A Journal of Synthetic Chemistry and Natural …, 2017)",
  "molecular_target": "T1, FGFR1 (Homo sapiens, UniProt P11362)",
  "T1 construct": "purchased Millipore",
  "T1 sequence (P11362 22-822)": "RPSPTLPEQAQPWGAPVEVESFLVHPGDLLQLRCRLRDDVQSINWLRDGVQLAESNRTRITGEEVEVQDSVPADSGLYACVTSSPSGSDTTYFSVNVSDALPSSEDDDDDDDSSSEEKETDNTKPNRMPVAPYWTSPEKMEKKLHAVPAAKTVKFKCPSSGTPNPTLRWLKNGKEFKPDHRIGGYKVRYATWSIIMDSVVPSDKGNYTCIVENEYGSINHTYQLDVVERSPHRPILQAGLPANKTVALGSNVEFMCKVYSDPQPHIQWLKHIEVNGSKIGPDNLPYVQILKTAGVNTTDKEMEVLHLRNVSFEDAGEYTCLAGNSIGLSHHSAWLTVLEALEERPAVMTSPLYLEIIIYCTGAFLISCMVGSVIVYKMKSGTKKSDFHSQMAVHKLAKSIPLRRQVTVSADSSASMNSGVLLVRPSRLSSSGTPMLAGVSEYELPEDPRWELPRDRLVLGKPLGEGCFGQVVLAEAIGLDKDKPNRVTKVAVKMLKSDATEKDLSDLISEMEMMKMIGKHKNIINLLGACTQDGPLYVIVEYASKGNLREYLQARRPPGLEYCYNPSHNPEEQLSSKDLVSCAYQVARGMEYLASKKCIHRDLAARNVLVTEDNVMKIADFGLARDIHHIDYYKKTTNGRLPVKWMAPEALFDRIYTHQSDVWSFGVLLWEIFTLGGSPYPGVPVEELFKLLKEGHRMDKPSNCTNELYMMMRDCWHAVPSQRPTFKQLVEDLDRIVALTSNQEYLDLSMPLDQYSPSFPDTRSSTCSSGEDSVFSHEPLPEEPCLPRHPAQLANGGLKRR",
  "assay": "ELISA kinase assay, FGFR1",
  "type": "biochemical",
  "conditions": "for inhibition at 1 µM: 1 μM compound; for inhibition at 0.1 µM: 0.1 μM compound",
  "procedure": "The effects of compounds on the activities of indicated (FGFR1 and c-Met) kinases were determined using enzyme-linked immunosorbent assays (ELISAs) with purified recombinant proteins. Briefly, 20 μg/mL poly (Glu, Tyr)4:1 (Sigma, St. Louis, MO, USA) was pre-coated in 96-well plates as a substrate. A 50-μL aliquot of 10 μmol/L ATP solution diluted in kinase reaction buffer (50 mmol/L HEPES (pH 7.4), 50 mmol/L MgCl2, 0.5 mmol/L MnCl2, 0.2 mmol/L Na3VO4, and 1 mmol/L DTT) was added to each well; 1 μL of various concentrations of compounds diluted in 1% DMSO (v/v) (Sigma) were then added to each reaction well. DMSO (1%, v/v) was used as the negative control. The kinase reaction was initiated by the addition of purified tyrosine kinase proteins FGFR1 (Millipore, Darmstadt, Germany) or c-Met (Millipore) diluted in 49 μL of kinase reaction buffer. After incubation for 60 min at 37 °C, the plate was washed three times with phosphate-buffered saline (PBS) containing 0.1% Tween 20 (T-PBS). Anti-phosphotyrosine (PY99) antibody (Sanra Cruz, Dallas, USA) (100 μL; 1:500, diluted in 5 mg/mL bovine serum albumin (BSA) T-PBS) was then added. After a 30-min incubation at 37 °C, the plate was washed three times, and 100 μL horseradish peroxidase-conjugated goat anti-mouse IgG (Calbiochem, Shanghai, China) (1:2000, diluted in 5 mg/mL BSA T-PBS) was added. The plate was then incubated at 37°C for 30 min and washed 3 times. A 100-μL aliquot of a solution containing 0.03% H2O2 and 2 mg/mL o-phenylenediamine in 0.1 mol/L citrate buffer (pH 5.5) was added. The reaction was terminated by the addition of 50 μL of 2 mol/L H2SO4 as the color changed, and the plate was analyzed using a multi-well spectrophotometer (SpectraMAX 190, Molecular Devices, Palo Alto, CA, USA) at 490 nm. […] (1) where IR, A490 and A490control are the inhibition rate, the absorbance value of the tested compound at 490 nm and the absorbance value of the negative control compound at 490 nm, respectively. The IC50 values were calculated from the inhibition curves in two separate experiments.",
  "key": {"[1]": {"conditions": "10 μM compound, mean from two separate experiments"}},
  "data": [
    {"smiles": "Cn1cc(-c2cnc3cnn(S(=O)(=O)c4ccccc4)c3c2)cn1", "note": "[Compound 4, 6-(1-Methyl-1H-pyrazol-4-yl)-1-(phenylsulfonyl)-1H-pyrazolo[4,3-b]pyridine]", "values": [
      {"measurement": "inhibition at 1 µM", "value": 47.1, "unit": "%"},
      {"measurement": "inhibition at 10 µM", "setting": "[1]", "value": 87.8, "unit": "%"}
    ]},
    {"smiles": "Cn1cc(-c2cnc3cnn(S(=O)(=O)Cc4ccccc4)c3c2)cn1", "note": "[Compound 5, 1-(Benzylsulfonyl)-6-(1-methyl-1H-pyrazol-4-yl)-1H-pyrazolo[4,3-b]pyridine]", "values": [
      {"measurement": "inhibition at 10 µM", "setting": "[1]", "value": 46.1, "unit": "%"}
    ]},
    {"smiles": "Cn1cc(-c2cnc3cnn(Cc4ccccc4)c3c2)cn1", "note": "[Compound 6, 1-Benzyl-6-(1-methyl-1H-pyrazol-4-yl)-1H-pyrazolo[4,3-b]pyridine]", "values": [
      {"measurement": "inhibition at 10 µM", "setting": "[1]", "value": 53, "unit": "%"}
    ]},
    {"smiles": "Cn1cc(-c2cnc3cnn(CCc4ccccc4)c3c2)cn1", "note": "[Compound 7, 6-(1-Methyl-1H-pyrazol-4-yl)-1-phenethyl-1H-pyrazolo[4,3-b]pyridine]", "values": [
      {"measurement": "inhibition at 10 µM", "setting": "[1]", "value": 55.9, "unit": "%"}
    ]},
    {"smiles": "Cn1cc(-c2cnc3ccn(S(=O)(=O)c4ccccc4)c3c2)cn1", "note": "[Compound 8, 6-(1-Methyl-1H-pyrazol-4-yl)-1-(phenylsulfonyl)-1H-pyrrolo[3,2-b]pyridine]", "values": [
      {"measurement": "inhibition at 1 µM", "value": 31.6, "unit": "%"},
      {"measurement": "inhibition at 10 µM", "setting": "[1]", "value": 80.4, "unit": "%"}
    ]},
    {"smiles": "Cn1cc(-c2cnc3ccn(S(=O)(=O)c4ccccc4)c3n2)cn1", "note": "[Compound 9, 3-(1-Methyl-1H-pyrazol-4-yl)-5-(phenylsulfonyl)-5H-pyrrolo[2,3-b]pyrazine]", "values": [
      {"measurement": "inhibition at 0.1 µM", "value": 46, "unit": "%"},
      {"measurement": "inhibition at 10 µM", "setting": "[1]", "value": 93.3, "unit": "%"},
      {"measurement": "FGFR1 Inhibition (%)", "setting": "10 μM compound, mean from two separate experiments, 10 µM", "value": 90.5, "unit": "%"}
    ]},
    {"smiles": "Cc1ncc(-c2cnn(C)c2)cc1NS(=O)(=O)c1ccccc1", "note": "[Compound 10, N-(2-Methyl-5-(1-methyl-1H-pyrazol-4-yl)pyridin-3-yl)benzenesulfonamide]", "values": [
      {"measurement": "inhibition at 1 µM", "value": 15.4, "unit": "%"},
      {"measurement": "inhibition at 10 µM", "setting": "[1]", "value": 50, "unit": "%"}
    ]},
    {"smiles": "Cn1cc(-c2cnc3ccn(S(=O)(=O)C4CCCC4)c3n2)cn1", "note": "[Compound 11, 5-(Cyclopentylsulfonyl)-3-(1-methyl-1H-pyrazol-4-yl)-5H-pyrrolo[2,3-b]pyrazine]", "values": [
      {"measurement": "inhibition at 0.1 µM", "value": 26.8, "unit": "%"},
      {"measurement": "inhibition at 1 µM", "value": 20.8, "unit": "%"},
      {"measurement": "inhibition at 10 µM", "setting": "[1]", "value": 34.7, "unit": "%"}
    ]},
    {"smiles": "Cn1cc(-c2cnc3ccn(S(=O)(=O)C4CCCCC4)c3n2)cn1", "note": "[Compound 12, 5-(Cyclohexylsulfonyl)-3-(1-methyl-1H-pyrazol-4-yl)-5H-pyrrolo[2,3-b]pyrazine]", "values": [
      {"measurement": "inhibition at 0.1 µM", "value": 29.4, "unit": "%"},
      {"measurement": "inhibition at 1 µM", "value": 24.1, "unit": "%"},
      {"measurement": "inhibition at 10 µM", "setting": "[1]", "value": 53.3, "unit": "%"}
    ]},
    {"smiles": "Cn1cc(-c2cnc3ccn(S(=O)(=O)c4ccccc4C#N)c3n2)cn1", "note": "[Compound 13, 2-((3-(1-Methyl-1H-pyrazol-4-yl)-5H-pyrrolo[2,3-b]pyrazin-5-yl)sulfonyl)benzonitrile]", "values": [
      {"measurement": "inhibition at 0.1 µM", "value": 40.3, "unit": "%"},
      {"measurement": "inhibition at 1 µM", "value": 32.6, "unit": "%"},
      {"measurement": "inhibition at 10 µM", "setting": "[1]", "value": 59.7, "unit": "%"}
    ]},
    {"smiles": "Cn1cc(-c2cnc3ccn(S(=O)(=O)c4ccc(Cl)cc4)c3n2)cn1", "note": "[Compound 14, 5-((4-Chlorophenyl)sulfonyl)-3-(1-methyl-1H-pyrazol-4-yl)-5H-pyrrolo[2,3-b]pyrazine]", "values": [
      {"measurement": "inhibition at 0.1 µM", "value": 22, "unit": "%"},
      {"measurement": "inhibition at 1 µM", "value": 27.2, "unit": "%"},
      {"measurement": "inhibition at 10 µM", "setting": "[1]", "value": 45.2, "unit": "%"}
    ]},
    {"smiles": "Cn1cc(-c2cnc3ccn(S(=O)(=O)c4ccc(F)cc4F)c3n2)cn1", "note": "[Compound 15, 5-((2,4-Difluorophenyl)sulfonyl)-3-(1-methyl-1H-pyrazol-4-yl)-5H-pyrrolo[2,3-b]pyrazine]", "values": [
      {"measurement": "inhibition at 0.1 µM", "value": 23.6, "unit": "%"},
      {"measurement": "inhibition at 1 µM", "value": 31.2, "unit": "%"},
      {"measurement": "inhibition at 10 µM", "setting": "[1]", "value": 55.6, "unit": "%"}
    ]}
  ]
}
